Data: patent US20060084789A1, “Immunotherapeutic and immunoprphylactic reagents” (priority 2002, published 2006)

How the values were obtained:
Type in all cases: cell-based, human
[1] = tested on: RGP-specific TCL; assay: TCL proliferation assay (3H-thymidine incorporation, stimulation index); details: peptides 10 μg/ml
Protocol: Generation of Short-Term RGP-Specific TCL
PBMC were cultured in 24-well plates (Costar, Mass., USA) at 2.5×10^6 cells/well with RGP extract at a concentration of 25 or 50 μg/ml in RPMI 1640 medium (Gibco BRL, NY, USA) supplemented with 2 mM GlutaMAX I (Gibco BRL), 0.05 mg/ml gentamicin (David Bull Laboratories, Mulgrave, Victoria, Australia) and 5% heat-inactivated hunan AB^+ serum (Sigma, Mo., USA) for 7 days at 37° C. in a 5% CO2 humidified incubator. At day 7, cells were washed once and restimulated in 24-well plates at 5×10^5 cells/well width 25 or 50 μg/ml of RGP extract in the presence of 5×10^5 cells/well irradiated (3000 rads) autologous PBMC as a source of antigen presenting cells (APC). At day 2 following restimulation, 10 U/ml of Lymphocult T-LF (LC; Biotest, Germany) was added as a source of IL-2 and at day 4, 1 ml of culture medium was removed and replaced with fresh medium and 10 U/ml of LC. […] In all experiments T cells were rested for 6 to 7 days after the last addition of antigen and APC before testing.
T cells (5×10^4/well) were cultured in 96-well U bottom plates with either RGP extract at concentrations ranging from 25 to 200 μg/ml, purified Lol p 1 (0.12 to 2 μg/ml) or Lol p 5 (0.1 to 10 μg/ml), or Lol p 1 or Lol p 5 peptides (10 μg/ml), or medium alone (to determine background levels of proliferation), in the presence of washed autologous irradiated (3000 rads) PBMC (5×10^4/well). […] Cultures were incubated for 3 days, pulsed for the last 16 hours with ^3H-thymidine (1 μCi/well) and harvested onto glass fibre filters. ^3H-thymidine incorporation was measured by liquid scintillation spectroscopy and the mean counts per minute (cpm) for triplicate cultures was determined. Responses were considered positive if the stimulation index (SI, cpm of antigen-stimulated T cells divided by cpm of unstimulated T cells) was ≧2.5. Where several concentrations of allergen were tested (i.e., RGP, Lol p 1 and Lol p 5), values corresponding to the highest proliferation are shown.

[2] = tested on: IL-5 production by RGP-specific TCL; assay: IL-5 detection in culture supernatants by sandwich ELISA; details: supernatant at 48 h, UD undetectable, limit of detection 10 pg/ml
Protocol: (§1) Cytokine Detection in Culture Supernatants
(§2) Supernatants of triplicate cultures were harvested and pooled from T cell proliferation assay cultures at 48 hours for the detection of IL-5 and IFN-γ production by sandwich ELISA. Briefly white Maxisorp (NUNC, Roskilde, Denmark) ELISA plates were coated with capture mAb (anti-IL-5, Pharmingen, San Diego, Calif., USA; anti-IFN-γ, Endogen, Woburn, Mass. USA) overnight at 4° C. Plates were then washed and wells blocked with 1% Bovine Serum Albumin/PBS for 1 hour at room temperature. Following washing, test samples (neat) and serial dilutions of recombinant human IL-5 (Pharmingen, USA) or IFN-γ (Endogen, USA) (for the construction of standard curves) were added and incubated overnight at 4° C. Following washing, plates were incubated with biotinylated detecting mAb (anti-IL-5, Pharmingen, USA; […], Endogen, USA) for 1 hour at room temperature. Plates were then washed and incubated with streptavidin-peroxidase (Amersham, Piscataway, N.J., USA) for 30 minutes at room temperature. Following washing, a chemiluminescent substrate (Du Pont, Wilmington, Del., USA) was added to each well and plates read in a Lumicount microplate Glow Luminometer (Packard Instrument Company, Meriden, Conn., USA), 0.5 seconds/well, automatic sensitivity setting. Standard curve construction and determination of test sample cytokine levels were performed using Packard I-smart software. The limits of detection for IL-5 and IFN-γ were 10 pg/ml and 2 pg/ml respectively.

[3] = tested on: IFN-γ production by RGP-specific TCL; assay: IFN-γ detection in culture supernatants by sandwich ELISA; details: supernatant at 48 h, UD undetectable, limit of detection 2 pg/ml
Protocol: as §1, §2

[4] = Subject 2 TCL, Lol p 1 series (Table 3), RGP and Lol p 1 maximal response
[5] = Subject 4 TCL, Lol p 1 series (Table 3), RGP and Lol p 1 maximal response
[6] = Subject 11 TCL, Lol p 1 series (Table 3), RGP and Lol p 1 maximal response
[7] = Subject 15 TCL, Lol p 1 series (Table 3), RGP and Lol p 1 maximal response
[8] = Subject 19 TCL, Lol p 1 series (Table 3), RGP and Lol p 1 maximal response
[9] = Subject 15 TCL, Lol p 1 peptides
[10] = Subject 19 TCL, Lol p 1 peptides
[11] = Subject 38 TCL, Lol p 5 peptides
[12] = Subject 14 TCL, Lol p 1 series (Table 3), RGP and Lol p 1 maximal response
[13] = Subject 10 TCL, Lol p 1 series (Table 3), RGP and Lol p 1 maximal response
[14] = Subject 18 TCL, Lol p 1 series (Table 3), RGP and Lol p 1 maximal response
[15] = Subject 23 TCL, Lol p 1 series (Table 3), RGP and Lol p 1 maximal response
[16] = Subject 23 TCL, Lol p 1 peptides

Substance: Lol p 1 peptide 1-20: synthetic 20-mer, amino acids 1-20 of Lol p 1A (SEQ ID NO:1) (IAKVPPGPNITAEYGDKWLD; Lolium perenne)
- Proliferative response, stimulation index ([1]; Subject 24 TCL, Lol p 1 series (Table 3), RGP and Lol p 1 maximal response): 2.6
- IL-5, proliferation inducing peptides ([2]; Subject 74 TCL, Lol p 1 peptides): 46.1 pg/mL

Substance: IAPYHFDLSGHAFGSMAKKG (Lolium perenne) [Lol p 1 peptide 100-119]
- Proliferative response, stimulation index [1, 4]: 9.4
- Proliferative response, stimulation index [1, 5]: 6.8
- Proliferative response, stimulation index [1, 6]: 7.9
- Proliferative response, stimulation index [1, 7]: 9.2
- Proliferative response, stimulation index [1, 8]: 3.7
- IL-5, proliferation inducing peptides [2, 9]: 275.6 pg/mL
- IFN-γ, proliferation inducing peptides [3, 9]: 167.1 pg/mL

Substance: KPTGAGPKDNGGACGYKDVD (Lolium perenne) [Lol p 1 peptide 28-47]
- Proliferative response, stimulation index [1, 5]: 4.1
- Proliferative response, stimulation index [1, 6]: 3.5
- Proliferative response, stimulation index [1, 7]: 7.6
- Proliferative response, stimulation index [1, 8]: 3.0
- IFN-γ, proliferation inducing peptides [3, 9]: 23.2 pg/mL
- IFN-γ, proliferation inducing peptides [3, 10]: 5.2 pg/mL

Substance: AALTKAITAMTQAQKAGKPA (Lolium perenne) [Lol p 5 peptide 226-245]
- Proliferative response, stimulation index ([1]; Subject 2 TCL, Lol p 5 series (Table 4), RGP and Lol p 5 maximal response): 3.3
- Proliferative response, stimulation index ([1]; Subject 11 TCL, Lol p 5 series (Table 4), RGP and Lol p 5 maximal response): 3.5
- Proliferative response, stimulation index ([1]; Subject 13 TCL, Lol p 5 series (Table 4), RGP and Lol p 5 maximal response): 2.0
- Proliferative response, stimulation index ([1]; Subject 27 TCL, Lol p 5 series (Table 4), RGP and Lol p 5 maximal response, † affinity purified Lol p 5): 7.1
- IFN-γ, proliferation inducing peptides ([3]; Subject 2 TCL, Lol p 5 peptides): 292.0 pg/mL

Substance: ADKFKIFEAAFSESSKGLLA (Lolium perenne) [Lol p 5 peptide 55-74]
- Proliferative response, stimulation index ([1]; Subject 36 TCL, Lol p 5 series (Table 4), RGP and Lol p 5 maximal response): 3.3
- Proliferative response, stimulation index ([1]; Subject 38 TCL, Lol p 5 series (Table 4), RGP and Lol p 5 maximal response, * SDS-PAGE purified Lol p 5): 3.3
- IL-5, proliferation inducing peptides [2, 11]: 220.7 pg/mL
- IFN-γ, proliferation inducing peptides [3, 11]: 54.2 pg/mL

Substance: Lol p 1 peptide 136-155: synthetic 20-mer, amino acids 136-155 of Lol p 1A (SEQ ID NO:1) (RRVKCKYPDGTKPTFHVEKA; Lolium perenne)
- Proliferative response, stimulation index [1, 5]: 2.5
- Proliferative response, stimulation index [1, 12]: 4.4
- IFN-γ, proliferation inducing peptides ([3]; Subject 14 TCL, Lol p 1 peptides): 106.4 pg/mL

Substance: GHAFGSMAKKGEEQNVRSAG (Lolium perenne) [Lol p 1 peptide 109-128]
- Proliferative response, stimulation index [1, 4]: 12.9
- Proliferative response, stimulation index ([1]; Subject 3 TCL, Lol p 1 series (Table 3), RGP and Lol p 1 maximal response): 2.8
- Proliferative response, stimulation index [1, 7]: 7.1
- Proliferative response, stimulation index ([1]; Subject 16 TCL, Lol p 1 series (Table 3), RGP and Lol p 1 maximal response): 3.0
- Proliferative response, stimulation index ([1]; Subject 17 TCL, Lol p 1 series (Table 3), RGP and Lol p 1 maximal response): 2.7
- Proliferative response, stimulation index [1, 8]: 12.0
- IL-5, proliferation inducing peptides [2, 9]: 160.7 pg/mL
- IFN-γ, proliferation inducing peptides ([3]; Subject 3 TCL, Lol p 1 peptides): 32.1 pg/mL
- IFN-γ, proliferation inducing peptides [3, 9]: 143.3 pg/mL
- IFN-γ, proliferation inducing peptides ([3]; Subject 16 TCL, Lol p 1 peptides): 13.8 pg/mL
- IFN-γ, proliferation inducing peptides [3, 10]: 8.0 pg/mL

Substance: KESWGAVWRIDTPDKLTGPF (Lolium perenne) [Lol p 1 peptide 190-209]
- Proliferative response, stimulation index [1, 5]: 6.2
- Proliferative response, stimulation index [1, 13]: 3.7
- Proliferative response, stimulation index [1, 6]: 3.3
- Proliferative response, stimulation index [1, 12]: 5.7
- Proliferative response, stimulation index [1, 14]: 5.4
- Proliferative response, stimulation index [1, 8]: 3.0
- Proliferative response, stimulation index ([1]; Subject 22 TCL, Lol p 1 series (Table 3), RGP and Lol p 1 maximal response): 5.7
- Proliferative response, stimulation index [1, 15]: 5.2
- IL-5, proliferation inducing peptides [2, 9]: 15.3 pg/mL
- IL-5, proliferation inducing peptides [2, 10]: 14.7 pg/mL
- IFN-γ, proliferation inducing peptides ([3]; Subject 10 TCL, Lol p 1 peptides): 9.0 pg/mL
- IFN-γ, proliferation inducing peptides [3, 9]: 63.5 pg/mL
- IFN-γ, proliferation inducing peptides [3, 16]: 8.3 pg/mL

Substance: KGKDKWIELKESWGAVWRID (Lolium perenne) [Lol p 1 peptide 181-200]
- Proliferative response, stimulation index [1, 5]: 4.5
- Proliferative response, stimulation index [1, 13]: 2.6
- Proliferative response, stimulation index [1, 6]: 7.3
- Proliferative response, stimulation index [1, 7]: 5.8
- Proliferative response, stimulation index [1, 14]: 2.6
- Proliferative response, stimulation index [1, 15]: 6.2
- IL-5, proliferation inducing peptides [2, 9]: 13.3 pg/mL
- IL-5, proliferation inducing peptides [2, 16]: 25.1 pg/mL
- IFN-γ, proliferation inducing peptides [3, 9]: 56.6 pg/mL
- IFN-γ, proliferation inducing peptides [3, 16]: 11.7 pg/mL
